Experimental data: patent US12280026B2, “Use of repirinast in the prophylaxis or treatment of renal fibrosis or kidney disease” (ALGERNON PHARMACEUTICALS INC., priority 2018, dated 2025)
“Also recorded” adds a separate entry of the source. Marks after values point to notes of the source that are not given here.

Columns and labels:
[1] = system: C57BL/6 mice with UUO surgical ligation; experiment: Example 1: UUO mice, renal fibrosis evaluation (Sirius Red histology score); assay type: in vivo; conditions: Bemithyl 200, Emoxypine 160, Suplatast Tosylate 60, Udenafil 40, Telmisartan 5 mg/kg PO QD
Method: (§1) Male 9-12 week old C57BL/6 mice of 23-25 grams body weight were used. All mice were acclimated for a minimum of 5 days prior to the start of the study and housed individually in microisolators throughout the study in a 12:12 light-dark cycle on a standard maintenance mouse chow diet (Harlan Teklad 2018) with food and water given ad libitum. Prior to surgery, all mice were weighed for baseline body weight.
(§2) The UUO surgical intervention was performed according to previously described methods known in the art (Le Meur Y et al., Macrophage accumulation at a site of renal inflammation is dependent on the M-CSF/c-fms pathway, J Leukocyte Biol., 72:530-537; 2002).
(§3) All mice were first anesthetized by intraperitoneal injection with a rodent cocktail (ketamine 10 mg/mL and Xyaline 1 mg/mL) in normal saline (10 μL/g body weight). Pedal reflex and movement of the vibrissae were used to determine the state of unconsciousness. A state of unconsciousness was confirmed after a period of about 5 minutes in all animals. All mice were then shaved on the left side of the abdomen. The shaved area was first swabbed with iodine and then swabbed with alcohol. A vertical incision was made through the skin with a #22 scalpel and the skin was then retracted. A further incision of about 2.5 cm was then made through the peritoneum avoiding any major blood vessels. The peritoneum was then retracted and the left kidney was exposed.
(§4) The left kidney was then brought to the surface by hooking the ureter directly beneath the kidney with sterile forceps and gently manipulating the kidney upward. The ureter was ligated at two points directly below the kidney with 5-0 surgical silk with excess suture cut away and discarded post-ligation. The kidney was then gently placed back to its correct anatomical position and the abdomen was lavaged with 1 mL sterile saline to replenish fluid loss. The peritoneum and then skin were sutured with 5-0 Mersilene, and the incision site was gently wiped with iodine. All mice were then placed individually in clean cages that were set on top of a thermal blanket until recovery at about 30-60 minutes later. In some examples, sham surgery was performed as a control by following all steps of the UUO surgical intervention procedure except ligation.
(§5) Following surgery, the mice were divided into 14 individual study groups of 8 mice each and, following post-surgical recovery, administered a once-daily oral treatment for 14 days. The mice in 12 of the 14 study groups (hereafter known as “treatment groups”) had all received the UUO surgical ligation and were treated individually with a distinct pharmacologic compound as set out in Table 1. The mice in 2 of the 14 study groups were treated individually with a pharmaceutically acceptable vehicle with no active ingredient. The pharmaceutically acceptable vehicle in all groups was 0.5% carboxymethyl cellulose (CMC). All mice were sacrificed with CO2 on post-surgical day 15.
The dose selected for the animal studies was determined by taking the maximum known human daily dose, dividing by the average weight of an adult (˜60-70 kg) to get a human mg/kg dose. […]
Histopathology: Formalin-fixed kidney cross-section samples were subjected histopathological scoring with Sirius Red staining, and imaged at a magnification of ×20, using standard techniques. All three sections were stained and evaluated. […] The presence of interstitial damage and severity score was assessed according to the following criteria: 0=normal, 1=light, 2=moderate, 3=severe. […]

[2] = system: C57BL/6 mice with UUO surgical ligation; experiment: Example 1: UUO mice, renal function evaluation (plasma BUN, creatinine); assay type: in vivo; conditions: Example 1; for BUN in comparison to control groups, in words: UUO, male C57BL/6 mice, PO QD days 1-14, doses of Table 1; for Reduction in BUN compared to vehicle, significance in words: Bonferroni post-test, Suplatast Tosylate 60, Iguratimod 15, Lobenzarit 48, Actarit 60, Udenafil 40 mg/kg PO QD
Method: as §1, §2, §3, §4, §5
(§6) The dose selected for the animal studies was determined by taking the maximum known human daily dose, dividing by the average weight of an adult (˜60-70 kg) to get a human mg/kg dose. Then that number was multiplied by 12 to convert to a mouse dose based on conventional dosing tables. See Nair and Jacob, J Basic Clin Pharm March 2016-May 2016, 7(2):27-31.
(§7) Serum collection: A blood sample was then collected from all mice and plasma analyzed for urea nitrogen and creatinine. Plasma was stored at −80° C. for possible future analysis.
(§8) Renal Function Evaluation: Renal function and disease progression was evaluated by BUN (blood urea nitrogen) as previously described. The BUN of each study group consisted of the BUN average of all mice in each study group.

[3] = system: C57BL/6 mice with UUO surgical ligation; experiment: Example 2: UUO mice, renal function evaluation (plasma BUN, creatinine); assay type: in vivo
Method: (§9) In this example, healthy young female C57BL/6 mice were used for the study. At the commencement of the study, mice were between 9-12 weeks of age, weighing 23-25 g. All the mice were obtained from Charles River Laboratories.
(§10) The mice were maintained in a controlled environment with a temp 70-72° F., humidity 30-70%, with a photo cycle of 12 hours of light and 12 hours of dark. They were provided with Harlan Teklad 2018 standard maintenance mouse chow diet and drinking water ad libitium.
(§11) After five days of acclimatization, the mice were grouped according to their body weight. There were ten groups of ten mice each. Nine groups of ten mice each underwent UUO as described above and the other group of ten mice underwent a sham procedure to serve as a no-surgery control.
(§12) Following surgery, the mice were divided into 10 individual study groups of 10 mice each and, following post-surgical recovery, administered a once-daily oral treatment for 14 days. The mice in 8 of the 10 study groups had all received the UUO surgical ligation and were treated individually with a distinct pharmacologic compound as set out in Table 6. The mice in 2 of the 10 study groups were treated individually with a pharmaceutically acceptable vehicle with no active ingredient. The pharmaceutically acceptable vehicle in all groups was 0.5% carboxymethyl cellulose (CMC). All mice were sacrificed with CO2 on post-surgical day 15.
as §6, with “That” for “Then that”
as §7
(§13) The data are presented as the mean obtained from Microsoft Excel or GraphPad Prism version 5.00 for Windows (GraphPad Software, San Diego California USA). Data were analyzed using two-way ANOVA using Bonferroni and Tamhane post-tests. Differences between groups were considered significant at p<0.05.
as §8

[4] = system: C57BL/6 mice with UUO surgical ligation; experiment: Example 2: UUO mice, renal fibrosis evaluation (Sirius Red histology score); assay type: in vivo
Method: as §9, §10, §11, §12
as §6, with “That” for “Then that”
Histopathology: Formalin-fixed kidney cross-section samples were subjected histopathological scoring with Sirius Red staining, and imaged at a magnification of ×20, using standard techniques. All three sections were stained and evaluated. The analysis was performed by a board-certified veterinarian pathologist. The presence of interstitial damage and severity score was assessed according to the following criteria: 0=normal; 1=light; 2=moderate; 3=severe.
as §13
Renal Fibrosis Evaluation: Renal fibrosis and interstitial damage was evaluated by histochemical staining of renal cross-sections with Sirius Red as previously described. The Histology Score of each study group consisted of the histology score average of all mice in each study group.

[5] = system: C57BL/6 mice with UUO surgical ligation; experiment: Example 2: UUO mice, kidney weight evaluation; assay type: in vivo; conditions: group mean, UUO, female C57BL/6 mice, PO QD days 1-14, mg/kg: Telmisartan 3, Bemithyl 200, Repirinast 30, Telmisartan+Bemithyl 3+200, Telmisartan+Repirinast 3+30, Cenicriviroc 40, Bromantane 40
Method: as §9, §10, §11, §12
as §6, with “That” for “Then that”
Kidney weight: The UUO was then examined in situ to ensure that the surgical ligation ties remained patent. Both the ligated (UUO) and non-ligated kidneys were removed for analysis. Weights of both kidneys were measured using a laboratory balance.
as §13
Kidney Weight Evaluation: Kidney weight, which indicates functional and pathological changes in the kidney, was evaluated by measuring the weight of both the ligated (UUO) and non-ligated kidneys as previously described. The ligated and non-ligated kidney weights of each study group consisted of the respective kidney weight averages of all mice in each study group.

[6] = Example 2: UUO mice, mean body weight change following surgery; assay type: in vivo, C57BL/6 mice; conditions: UUO, female C57BL/6 mice, PO QD days 1-14, mg/kg: Telmisartan 3, Bemithyl 200, Repirinast 30, Telmisartan+Bemithyl 3+200, Telmisartan+Repirinast 3+30, Cenicriviroc 40, Bromantane 40
Method: as §9, §10, §11, §12
as §6, with “That” for “Then that”
Body weight: The body weights were measured on days 1, 4, 7, 10 and 14 using a laboratory balance.
Body weights were measured on post-surgical days 1, 4, 7, 10 and 14 as previously described. The mean body weight change of each study group was calculated using the body weight average of all mice in each study group.

[7] = Example 2, mg/kg PO QD: Telmisartan 3, Bemithyl 200, Repirinast 30, Telmisartan+Bemithyl 3+200, Telmisartan+Repirinast 3+30, Cenicriviroc 40, Bromantane 40

SMILES: CCc1nc(C)ccc1O [Emoxypine, 2-Ethyl-6-methyl-3-hydroxypyridine]
- Kidney fibrosis / Histology Score, significance and comparison in words [1]: the same as the positive control treatment group; also recorded: significant reductions in kidney fibrosis; also recorded: significant reduction in fibrosis compared to vehicle
- BUN in comparison to control groups, in words [2]: less renal dysfunction and disease progression than the positive control treatment

SMILES: CCCCOCCOc1ccc(-c2ccc3c(c2)/C=C(/C(=O)Nc2ccc([S@@+]([O-])Cc4cncn4CCC)cc2)CCCN3CC(C)C)cc1 [Cenicriviroc]
- Level of BUN compared to vehicle or other agents, in words [3, 7]: this reduction was not significant
- BUN ([3]; plasma at sacrifice day 15, group mean, * significant vs vehicle Bonferroni, # Tamhane (p<0.05), UUO, female C57BL/6 mice, PO QD days 1-14, mg/kg: Telmisartan 3, Bemithyl 200, Repirinast 30, Telmisartan+Bemithyl 3+200, Telmisartan+Repirinast 3+30, Cenicriviroc 40, Bromantane 40): 19.9 mg/dL
- Creatinine ([3]; plasma at sacrifice day 15, group mean, UUO, female C57BL/6 mice, PO QD days 1-14, mg/kg: Telmisartan 3, Bemithyl 200, Repirinast 30, Telmisartan+Bemithyl 3+200, Telmisartan+Repirinast 3+30, Cenicriviroc 40, Bromantane 40): 0.21 mg/dL
- Level of kidney fibrosis / histology score compared to vehicle or other agents, in words [4, 7]: statistically insignificant improvements
- Histology Score ([4]; Sirius Red, 0=normal, 1=light, 2=moderate, 3=severe, group mean, UUO, female C57BL/6 mice, PO QD days 1-14, mg/kg: Telmisartan 3, Bemithyl 200, Repirinast 30, Telmisartan+Bemithyl 3+200, Telmisartan+Repirinast 3+30, Cenicriviroc 40, Bromantane 40): 1.63*#
- Reduction of fibrosis (%) (versus vehicle) ([4]; from histology score, UUO, female C57BL/6 mice, PO QD days 1-14, mg/kg: Telmisartan 3, Bemithyl 200, Repirinast 30, Telmisartan+Bemithyl 3+200, Telmisartan+Repirinast 3+30, Cenicriviroc 40, Bromantane 40): 32%
- Drained Left Kidney ([5]; ligated kidney drained): 0.1683 g
- Excised Left Kidney ([5]; ligated kidney): 0.4091 g
- Right Kidney (g) ([5]; unligated kidney): 0.1342* g
- Mean Body Weight Change Following Surgery, Day 1 ([6]; Day 1): 0 g
- Mean Body Weight Change Following Surgery, Day 4 ([6]; Day 4): -0.30 g
- Mean Body Weight Change Following Surgery, Day 7 ([6]; Day 7): -0.12 g
- Mean Body Weight Change Following Surgery, Day 10 ([6]; Day 10): 0.18 g
- Mean Body Weight Change Following Surgery, Day 14 ([6]; Day 14): 0.82 g

SMILES: CS(=O)(=O)Nc1cc2occ(NC=O)c(=O)c2cc1Oc1ccccc1 [Iguratimod, N-(7-(Methylsulfonamido)-4-oxo-6-phenoxy-4H-chromen-3-yl)formamide]
- Reduction in BUN compared to vehicle, significance in words [2]: significant reductions in BUN
- BUN in comparison to control groups, in words [2]: less renal dysfunction and disease progression than the positive control treatment; also recorded: decreased in comparison to the sham surgery control group

SMILES: O=C(O)c1ccccc1Nc1cc(Cl)ccc1C(=O)O [Lobenzarit, 2-[(2-Carboxyphenyl)amino]-4-chlorobenzoic acid]
- Reduction in BUN compared to vehicle, significance in words [2]: significant reductions in BUN
- BUN in comparison to control groups, in words [2]: less renal dysfunction and disease progression than the positive control treatment; also recorded: decreased in comparison to the sham surgery control group

SMILES: CC(=O)Nc1ccc(CC(=O)O)cc1 [Actarit, (4-Acetamidophenyl)acetic acid]
- Reduction in BUN compared to vehicle, significance in words [2]: significant reductions in BUN
- BUN in comparison to control groups, in words [2]: less renal dysfunction and disease progression than the positive control treatment; also recorded: decreased in comparison to the sham surgery control group

SMILES: CCCOc1ccc(S(=O)(=O)NCCC2CCCN2C)cc1-c1nc(=O)c2c([nH]1)c(CCC)nn2C (stereo not shown) [Udenafil]
- Kidney fibrosis / Histology Score, significance and comparison in words [1]: significant reductions in kidney fibrosis; also recorded: significant reduction in fibrosis compared to vehicle
- Reduction in BUN compared to vehicle, significance in words [2]: significant reductions in BUN
- BUN in comparison to control groups, in words [2]: less renal dysfunction and disease progression than the positive control treatment; also recorded: decreased in comparison to the sham surgery control group
